Experimental data from ChEMBL document CHEMBL6109072, “Discovery of highly potent dual GSPT1/BRD4 degraders with anti-AML activity” (Eur J Med Chem, 2025).
Calls of active or inactive are those of the source. No cut-off for these calls is given here.

Legend:
NB-4 = experiment: Antiproliferative activity against human NB4 cells incubated for 3 days by CCK8 assay; format: functional, cell-based; details: NB-4, 72 h
MOLM-13 [1] = experiment: Antiproliferative activity against human MOLM-13 cells incubated for 3 days by CCK8 assay; format: functional, cell-based; details: MOLM-13, 72 h
HL-60 = experiment: Antiproliferative activity against human HL-60 cells incubated for 3 days by CCK8 assay; format: functional, cell-based; details: HL-60, 72 h
OCI-AML-3 = experiment: Antiproliferative activity against human OCI-AML-3 cells incubated for 3 days by CCK8 assay; format: functional, cell-based; details: Homo sapiens, OCI-AML-3, 72 h
THP-1 = experiment: Antiproliferative activity against human THP-1 cells incubated for 3 days by CCK8 assay; format: functional, cell-based; details: THP-1, 72 h
Raji = experiment: Antiproliferative activity against human Raji cells incubated for 3 days by CCK8 assay; format: functional, cell-based; details: 72 h
KARPAS-299 = experiment: Antiproliferative activity against human KARPAS-299 cells incubated for 3 days by CCK8 assay; format: functional, cell-based; details: Homo sapiens, KARPAS-299, 72 h
MOLM-13 [2] = experiment: Antiproliferative activity against human MOLM-13 cells assessed as cell viability at 0.1 uM incubated for 3 days by CCK8 assay relative to control; format: functional; details: MOLM-13, 72 h, time 3 day, read-out: Activity
SU-DHL-1 = experiment: Antiproliferative activity against human SU-DHL-1 cells incubated for 3 days by CCK8 assay; format: functional, cell-based; details: SU-DHL-1, 72 h
Daudi = experiment: Antiproliferative activity against human Daudi cells incubated for 3 days by CCK8 assay; format: functional, cell-based; details: 72 h
[3] = target: T1, Protein cereblon/Bromodomain-containing protein 4 (Homo sapiens, UniProt O60885+Q96SW2); experiment: PROTAC activity at CRBN/BRD4 in human MOLM-13 cells assessed as BRD4 degradation at 1 uM incubated for 24 hrs by Western blot analysis; format: cell-based
T1 sequence (Q96SW2 whole entry, looked up, other chains not shown): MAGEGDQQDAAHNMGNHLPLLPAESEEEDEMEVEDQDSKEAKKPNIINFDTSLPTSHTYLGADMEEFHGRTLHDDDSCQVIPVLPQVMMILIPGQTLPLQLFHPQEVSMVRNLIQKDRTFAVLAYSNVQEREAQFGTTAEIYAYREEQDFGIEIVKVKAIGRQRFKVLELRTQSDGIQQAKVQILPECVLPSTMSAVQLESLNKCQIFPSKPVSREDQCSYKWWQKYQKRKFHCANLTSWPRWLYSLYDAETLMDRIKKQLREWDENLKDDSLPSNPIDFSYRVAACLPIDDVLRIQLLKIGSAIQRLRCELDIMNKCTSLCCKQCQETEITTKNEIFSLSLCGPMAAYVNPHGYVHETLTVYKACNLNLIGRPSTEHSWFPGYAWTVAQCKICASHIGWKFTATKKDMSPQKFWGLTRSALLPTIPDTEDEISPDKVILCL

[4] = target: T2, Protein cereblon/Eukaryotic peptide chain release factor GTP-binding subunit ERF3A (Homo sapiens, UniProt Q96SW2+P15170); experiment: PROTAC activity at CRBN/GSPT1 in human MOLM-13 cells assessed as GSPT1 degradation at 100 nM incubated for 6 hrs by Western blot analysis; format: cell-based
Target sequence in this assay (P15170 whole entry, looked up): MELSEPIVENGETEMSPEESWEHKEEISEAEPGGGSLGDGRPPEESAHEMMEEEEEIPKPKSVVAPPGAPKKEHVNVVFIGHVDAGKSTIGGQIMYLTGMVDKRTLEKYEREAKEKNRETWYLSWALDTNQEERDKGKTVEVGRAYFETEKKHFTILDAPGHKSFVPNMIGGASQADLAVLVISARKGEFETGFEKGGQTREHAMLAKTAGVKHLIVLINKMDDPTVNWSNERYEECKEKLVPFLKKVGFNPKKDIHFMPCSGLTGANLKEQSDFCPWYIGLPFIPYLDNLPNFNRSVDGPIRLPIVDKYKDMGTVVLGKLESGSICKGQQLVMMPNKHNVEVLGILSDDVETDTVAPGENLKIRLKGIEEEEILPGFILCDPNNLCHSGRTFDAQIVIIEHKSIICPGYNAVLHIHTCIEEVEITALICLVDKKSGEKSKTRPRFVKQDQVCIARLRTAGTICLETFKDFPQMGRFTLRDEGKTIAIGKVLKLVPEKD
Target sequence in this assay (Q96SW2 whole entry, looked up): as the sequence (Q96SW2 whole entry, looked up, other chains not shown) above

[5] = target: T1, Protein cereblon/Bromodomain-containing protein 4; experiment: PROTAC activity at CRBN/BRD4 in human MOLM-13 cells assessed as BRD4 degradation at 100 nM incubated for 6 hrs by Western blot analysis; format: cell-based
[6] = target: T1, Protein cereblon/Bromodomain-containing protein 4; experiment: PROTAC activity at CRBN/BRD4 in human MOLM-13 cells assessed as BRD4 degradation incubated for 24 hrs by Western blot analysis; format: cell-based
[7] = target: T2, Protein cereblon/Eukaryotic peptide chain release factor GTP-binding subunit ERF3A; experiment: PROTAC activity at CRBN/GSPT1 in human MOLM-13 cells assessed as GSPT1 degradation incubated for 24 hrs by Western blot analysis; format: cell-based
Target sequence in this assay (Q96SW2 whole entry): as the sequence (Q96SW2 whole entry, looked up, other chains not shown) above
Target sequence in this assay (P15170 whole entry): as the sequence (P15170 whole entry, looked up) above

MOLM-13 [8] = experiment: Induction of apoptosis in human MOLM-13 cells assessed as viable cells at 0.1 uM incubated for 6 hrs by Annexin V-APC/7-AAD staining based flow cytometry (reference value: 97.12 %); format: functional; details: read-out: Activity
MOLM-13 [9] = experiment: Induction of apoptosis in human MOLM-13 cells assessed as early apoptotic cells at 0.1 uM incubated for 6 hrs by Annexin V-APC/7-AAD staining based flow cytometry (reference value: 0.08 %); format: functional
MOLM-13 [10] = experiment: Induction of apoptosis in human MOLM-13 cells assessed as late apoptotic cells at 0.1 uM incubated for 6 hrs by Annexin V-APC/7-AAD staining based flow cytometry (reference value: 0.01 %); format: functional
MOLM-13 [11] = experiment: Induction of apoptosis in human MOLM-13 cells assessed as necrotic cells at 0.1 uM incubated for 6 hrs by Annexin V-APC/7-AAD staining based flow cytometry (reference value: 2.79 %); format: functional
MOLM-13 [12] = experiment: Induction of apoptosis in human MOLM-13 cells assessed as viable cells at 0.1 uM incubated for 12 hrs by Annexin V-APC/7-AAD staining based flow cytometry (reference value: 97.12 %); format: functional; details: read-out: Activity
MOLM-13 [13] = experiment: Induction of apoptosis in human MOLM-13 cells assessed as early apoptotic cells at 0.1 uM incubated for 12 hrs by Annexin V-APC/7-AAD staining based flow cytometry (reference value: 0.08 %); format: functional
MOLM-13 [14] = experiment: Induction of apoptosis in human MOLM-13 cells assessed as late apoptotic cells at 0.1 uM incubated for 12 hrs by Annexin V-APC/7-AAD staining based flow cytometry (reference value: 0.01 %); format: functional
MOLM-13 [15] = experiment: Induction of apoptosis in human MOLM-13 cells assessed as necrotic cells at 0.1 uM incubated for 12 hrs by Annexin V-APC/7-AAD staining based flow cytometry (reference value: 2.79 %); format: functional
MOLM-13 [16] = experiment: Induction of apoptosis in human MOLM-13 cells assessed as viable cells at 0.1 uM incubated for 24 hrs by Annexin V-APC/7-AAD staining based flow cytometry (reference value: 97.12 %); format: functional; details: read-out: Activity
MOLM-13 [17] = experiment: Induction of apoptosis in human MOLM-13 cells assessed as early apoptotic cells at 0.1 uM incubated for 24 hrs by Annexin V-APC/7-AAD staining based flow cytometry (reference value: 0.08 %); format: functional
MOLM-13 [18] = experiment: Induction of apoptosis in human MOLM-13 cells assessed as late apoptotic cells at 0.1 uM incubated for 24 hrs by Annexin V-APC/7-AAD staining based flow cytometry (reference value: 0.01 %); format: functional
MOLM-13 [19] = experiment: Induction of apoptosis in human MOLM-13 cells assessed as necrotic cells at 0.1 uM incubated for 24 hrs by Annexin V-APC/7-AAD staining based flow cytometry (reference value: 2.79 %); format: functional
MOLM-13 [20] = experiment: Induction of cell cycle arrest in human MOLM-13 cells assessed as accumulation at G1 phase at 0.1 uM incubated for 6 to 12 hrs by PI staining based flow cytometry; format: functional; details: time 6-12 hrs
[21] = Cytotoxicity in human PBMC cells at 62.5 to 1000 nM; format: toxicity, cell-based; details: 1 µM, dose 62.5-1000 nM
[22] = Toxicity in IL2Rg-null NSG mouse xenografted with human MOLM-13 cells expressing GFP-Fluc assessed as body weight change at 2.5 mg/kg, ip bid treated for 18 days; format: organism-based; details: in vivo, 432 h, time 18 day
[23] = Toxicity in IL2Rg-null NSG mouse xenografted with human MOLM-13 cells expressing GFP-Fluc assessed as drug tolerance at 2.5 mg/kg, ip bid treated for 18 days; format: organism-based; details: in vivo, 432 h, time 18 day
MOLM-13 [24] = experiment: Antitumor activity against human MOLM-13 cells expressing GFP-Fluc xenografted in IL2Rg-null NSG mouse assessed as reduction in leukemia burden at 2.5 mg/kg, ip bid treated for 21 days by bioluminescence imaging based analysis; format: functional, organism-based; details: time 21.0 day
MOLM-13 [25] = experiment: Antitumor activity against human MOLM-13 cells expressing GFP-Fluc xenografted in IL2Rg-null NSG mouse assessed as reduction in spleen weight at 2.5 mg/kg, ip bid treated for 21 days; format: functional, organism-based; details: time 21.0 day
MOLM-13 [26] = experiment: Antitumor activity against human MOLM-13 cells expressing GFP-Fluc xenografted in IL2Rg-null NSG mouse assessed as reduction in GFP-positive leukemic cells in peripheral blood at 2.5 mg/kg, ip bid treated for 21 days by flow cytometry; format: functional, organism-based; details: time 21.0 day
MOLM-13 [27] = experiment: Antitumor activity against human MOLM-13 cells expressing GFP-Fluc xenografted in IL2Rg-null NSG mouse assessed as reduction in GFP-positive leukemic cells in spleen at 2.5 mg/kg, ip bid treated for 21 days by flow cytometry; format: functional, organism-based; details: time 21.0 day
MOLM-13 [28] = experiment: Antitumor activity against human MOLM-13 cells expressing GFP-Fluc xenografted in IL2Rg-null NSG mouse assessed as reduction in GFP-positive leukemic cells in bone marrow at 2.5 mg/kg, ip bid treated for 21 days by flow cytometry; format: functional, organism-based; details: time 21.0 day
MOLM-13 [29] = experiment: Antitumor activity against human MOLM-13 cells expressing GFP-Fluc xenografted in IL2Rg-null NSG mouse assessed as prolongation of median survival time at 2.5 mg/kg, ip bid treated for 21 days; format: functional, organism-based; details: time 21.0 day

SMILES: Cc1sc2c(c1C)C(c1ccc(Cl)cc1)=N[C@@H](CC(=O)N1CCN(CC3CCN(c4ccc5c(c4)C(=O)N(C4CCC(=O)NC4=O)C5=O)CC3)CC1)c1nnc(C)n1-2 (some centres not stated)
- IC50 (NB-4): 2.69 nM
- IC50 (MOLM-13 [1]): 8.55 nM
- IC50 (HL-60): 8.19 nM
- IC50 (OCI-AML-3): 14.4 nM
- IC50 (THP-1): 18 nM
- IC50 (Raji): 10.1 nM
- IC50 (KARPAS-299): 25.5 nM
- viability at 0.1 µM (MOLM-13 [2]): 7.02%
- IC50 (SU-DHL-1): 6.29 nM
- IC50 (Daudi): 8.92 nM
- Activity [3]: Active
- Activity [4]: Active
- Activity [5]: Active
- DC50 [6]: 0.48 nM
- DC50 [7]: 5.25 nM
- viability at 0.1 µM (MOLM-13 [8]): 78.7%
- Activity (MOLM-13 [9]): 20.64%
- Activity (MOLM-13 [10]): 0.3%
- Activity (MOLM-13 [11]): 0.36%
- viability at 0.1 µM (MOLM-13 [12]): 57.8%
- Activity (MOLM-13 [13]): 39.9%
- Activity (MOLM-13 [14]): 2.01%
- Activity (MOLM-13 [15]): 0.26%
- viability at 0.1 µM (MOLM-13 [16]): 10.2%
- Activity (MOLM-13 [17]): 67.5%
- Activity (MOLM-13 [18]): 21.1%
- Activity (MOLM-13 [19]): 1.18%
- Activity (MOLM-13 [20]): Active
- Activity [21]: Non-toxic
- Activity [22]: Non-toxic
- Activity [23]: Non-toxic
- Activity (MOLM-13 [24]): Active
- Activity (MOLM-13 [25]): Active; Compound Activity Consistent With Decreased Leukemic Infiltration
- Activity (MOLM-13 [26]): Active
- Activity (MOLM-13 [27]): Active
- Activity (MOLM-13 [28]): Active
- Activity (MOLM-13 [29]): Active
